Measured values: US3963716A, “Novel 1-phthalazone derivative, a process for its preparation and a pharmaceutical composition containing it” (priority 1973, dated 1976)
Read-outs that look alike come from different tables or passages of the source.

Assays:
human platelet = human platelet aggregation in vitro induced by ADP or adrenaline (CPRP); type: cell-based; conditions: 200 s, intensity with compound vs saline; for activity at 40 µg/mL: 40 μg/ml; for activity at 80 µg/mL: 80 μg/ml; for activity at 300 µg/mL: 300 μg/ml
Procedure: Samples of human CPRP (citrated platelet-rich plasma) were incubated at 37°C. for 200 sec. with 1/10 volume of saline containing various amount of the compound to be tested. To the mixture was then added ADP (3μMole) or adrenaline (1 μg/ml). Intensity of primary and secondary aggregation was measured with a platelet aggregation meter (Chrono-Log, Model 300).
Intensity of ADP- or adrenaline-induced aggregation of each sample, which was incubated with the compound, was compared with that of the same sample incubated with saline. The ratio was expressed as a percentage of intensity of aggregation with the compound against one with saline.
The intensity of primary and secondary aggregation of platelets was measured by the procedure described in H. Yamazaki, T. Sano, et al.; title[Platelet Functions in Thromboembolic Disorders] Thrombosis et Diatheses Haemorrhagica "in press" and the references cited therein.

[1] = tested on: cyclic AMP phosphodiesterase; experiment: inhibition of cyclic AMP phosphodiesterase, human platelet; type: biochemical; conditions: 50% inhibition of cyclic AMP phosphodiesterase; read-out: I50, Platelet (human)
Procedure: (§1) The procedure of the experiment was carried out in accordance with the method described in H. Hidaka and M. Shibuya: title "A new assay of cyclic nucleotide phosphodiesterase and its application to humans", Biochemical Medicine, (in press).

[2] = target: cyclic AMP phosphodiesterase; experiment: inhibition of cyclic AMP phosphodiesterase, aortic wall media (rabbit); type: biochemical; conditions: 50% inhibition of cyclic AMP phosphodiesterase; read-out: I50, Aortic Wall, Media (rabbit)
Procedure: as §1

[3] = read-out: Inhibition ratio, primary aggregation, ADP 3 μM
[4] = read-out: Inhibition ratio, primary aggregation, Adrenaline 1μg/ml
[5] = read-out: Inhibition ratio, secondary aggregation, ADP 3 μM
[6] = read-out: Inhibition ratio, secondary aggregation, Adrenaline 1μg/ml

Structure (SMILES)	activity at 40 µg/mL (human platelet; [3])	activity at 40 µg/mL (human platelet; [4])	activity at 40 µg/mL (human platelet; [5])	activity at 40 µg/mL (human platelet; [6])	activity at 80 µg/mL (human platelet; [3])	activity at 80 µg/mL (human platelet; [4])	activity at 80 µg/mL (human platelet; [5])	activity at 80 µg/mL (human platelet; [6])	activity at 300 µg/mL (human platelet; [3])	activity at 300 µg/mL (human platelet; [4])	activity at 300 µg/mL (human platelet; [5])	activity at 300 µg/mL (human platelet; [6])	IC50 [1]	IC50 [2]
CC(=O)Oc1ccccc1C(=O)O [Acetylsalicylic acid]	98.9 ± 3.4%	106 ± 3.3%	78 ± 9.9%	45 ± 7.8%	95.7 ± 1.8%	95.6 ± 5.2%	70.2 ± 10.1%	46.5 ± 7.9%	109 ± 3.6%	108 ± 2.6%	75.5 ± 5.9%	62.7 ± 10.7%		
Cn1c(=O)c2c(ncn2C)n(C)c1=O [caffeine]													350 µM	460 µM
